The subject of one assay is 5-HT1A receptor. Particulars: cited from earlier work.
For another assay, the target named is T1, dopamine D2 receptor (Rattus norvegicus, UniProt P61169).
T1 construct: homogenized limbic brain tissue is incubated with ^3 H-spiroperidol; from tissue; host or cells: homogenized limbic brain tissue
Nature of the assay: Dopamine D2 receptor affinity, 3H-spiroperidol binding in homogenized limbic brain tissue.

The subject of a further assay is mouse locomotor activity. Nature of the assay: Reduction of mouse locomotor activity (Martin and Bendensky). The assay is classed as in vivo, mice (male, CF-1). Particulars: horizontal activity counts 10 to 20 minutes after dosing; for ED50: ip, read-out: Hypolocomotion (ED50 mg/kg, ip).
A further assay has as its system synthesis of dopamine. As to the kind of experiment: Inhibition of dopa accumulation in GBL/NSD-1015-treated rats (dopamine autoreceptor agonism; Walters and Roth). The assay is classed as in vivo, rats (male, Sprague-Dawley). Particulars: sc, rat. The source says: The effect of the compounds of the invention on the synthesis of dopamine was established by the method of Walters and Roth, Naunyn-Schmiedeberg's Arch. […] Following perchloric acid extraction of the tissue, the extracts were placed over alumina columns to collect and concentrate dopa and other catechols. This eluate was then subjected to HPLC analysis using electrochemical detection to quantify the levels of dopa present. Dopamine autoreceptor agonists, under the conditions used above, inhibit dopa accumulation.

The target in assay [1] is T2, serotonin 5-HT1A receptor (Rattus norvegicus, UniProt P19327).
T2 construct: following the procedure of Hall et al., J. Neurochem; 44, 1685 (1985); from tissue
T2 sequence (P19327 1-422): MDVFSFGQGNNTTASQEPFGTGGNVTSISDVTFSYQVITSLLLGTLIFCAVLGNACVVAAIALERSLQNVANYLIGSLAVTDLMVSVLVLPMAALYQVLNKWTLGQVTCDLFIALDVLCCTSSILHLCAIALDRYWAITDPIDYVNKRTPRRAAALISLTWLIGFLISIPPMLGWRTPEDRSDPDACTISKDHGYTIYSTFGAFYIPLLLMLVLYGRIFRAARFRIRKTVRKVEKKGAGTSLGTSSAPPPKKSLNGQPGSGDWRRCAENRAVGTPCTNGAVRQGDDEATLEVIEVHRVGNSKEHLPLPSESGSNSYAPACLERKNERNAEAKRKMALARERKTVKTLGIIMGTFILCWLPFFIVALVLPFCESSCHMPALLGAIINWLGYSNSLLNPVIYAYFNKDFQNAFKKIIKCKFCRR
Nature of the assay: Serotonin 5-HT1A receptor affinity, displacement of [3H]8-OHDPAT. The class given is binding. Particulars: for inhibition at 0.1 µM: read-out: Receptor Affinities 5-HT1A (% @ ( ) μM). An excerpt: Affinity for the serotonin 5-HT1A receptor was established by testing the claimed compound's ability to displace [^3 H]8-OHDPAT (dipropylaminotetralin) from the 5-HT1A serotonin receptor following the procedure of Hall et al., J. Neurochem. 44, 1685 (1985). […] The anxiolytic activity of buspirone is believed to be, at least partially, due to its 5-HT1A receptor affinity (Vander Maclen et al., Eur. J. Pharmacol. 1986, 129 (1-2) 133-[…]).
In general terms: Displacement assays read how much labelled ligand stays bound in the presence of the test substance.

Where [2] appears, read: limbic (L) brain tissue, read-out: Dopa Accumulation (% inhib. @ 10 mg/kg, sc), limbic (L).
The mark [3] stands for this setting: striatal (S) brain tissue, read-out: Dopa Accumulation (% inhib. @ 10 mg/kg, sc), striatal (S).

Where two headings read alike, the source gives them in different places.

Consider 21 compounds from patent US5126366A, “Aminophenoxyalkyl derivatives of benzodioxan” (American Home Products Corporation, priority 1991, dated 1992).

T1 sequence (P61169 whole entry): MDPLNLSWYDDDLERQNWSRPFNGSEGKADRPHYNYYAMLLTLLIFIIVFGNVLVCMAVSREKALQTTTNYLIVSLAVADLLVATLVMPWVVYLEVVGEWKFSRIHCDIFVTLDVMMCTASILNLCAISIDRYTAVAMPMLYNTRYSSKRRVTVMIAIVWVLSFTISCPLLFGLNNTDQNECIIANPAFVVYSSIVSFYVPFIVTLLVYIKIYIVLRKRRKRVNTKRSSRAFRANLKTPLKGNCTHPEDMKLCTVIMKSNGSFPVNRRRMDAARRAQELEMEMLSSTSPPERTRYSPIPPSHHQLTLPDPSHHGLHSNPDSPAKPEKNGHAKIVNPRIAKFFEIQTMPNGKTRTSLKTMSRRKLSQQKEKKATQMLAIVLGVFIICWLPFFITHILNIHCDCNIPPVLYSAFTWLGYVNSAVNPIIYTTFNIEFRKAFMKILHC

For the compound `O=C1CC2(CCCC2)CC(=O)N1CCCCNCC1COc2ccccc2O1` (single isomer, unassigned; (-)) [(-)-MDL 72832], in the assay on 5-HT1A receptor ((-)-isomer versus dextrorotary isomer, Fozard et al.), the “binding at the 5-HT1A receptor site relative to the dextrorotary isomer” value was 32 times.

As for `Nc1cccc(OCCCNCC2COc3ccccc3O2)c1` (centres unmarked) [Example 1, N-[3-(3-Aminophenoxy)propyl]-2,3-dihydro-1,4-benzodioxin-2-methanamine], the results for the half-maximal inhibitory concentration (IC50) (at dopamine D2 receptor (read-out: Receptor Affinities D2 IC50); in assay [1] (read-out: Receptor Affinities 5-HT1A IC50)) were 525 nM and 4 nM, respectively. Also, the ED50 with mouse locomotor activity was found to be 0.38 mg/kg. Further, the inhibition at 10 mg/kg stood at 33% with synthesis of dopamine (setting [2]) and 46% in the assay with synthesis of dopamine (setting [3]).

As for `COc1cccc2c1OCC(CNCCCOc1cccc(N)c1)O2` (centres unmarked) [Example 2, N-[3-(3-Aminophenoxy)propyl]-2,3-dihydro-5-methoxy-1,4-benzodioxin-2-methanamine], in the assay on synthesis of dopamine (setting [2]), the inhibition at 10 mg/kg is -22%.

On to `Nc1cccc(OCCCNCC2COc3ccc(O)cc3O2)c1` (centres unmarked) [Example 3, N-[3-(3-Aminophenoxy)propyl]-2,3-dihydro-7-hydroxy-1,4-benzodioxin-2-methanamine], for which the ED50 with mouse locomotor activity (Mus musculus) was found to be 0.16 mg/kg. Further, the “Hypolocomotion (ED50 mg/kg, ip)” value in the assay on mouse locomotor activity was 0.15 mg/kg. Further, the inhibition at 10 mg/kg with synthesis of dopamine (setting [2]) is 64%; in the assay with synthesis of dopamine (setting [3]), 66%.

As for `Nc1cccc(OCCCNC[C@H]2COc3ccc(O)cc3O2)c1` [Example 4, (S)-N-[3-(3-Aminophenoxy)propyl]-2,3-dihydro-7-hydroxy-1,4-benzodioxin-2-methanamine], in the assay with mouse locomotor activity (Mus musculus), the ED50 was 0.08 mg/kg. Besides, the inhibition at 10 mg/kg in the assay with synthesis of dopamine (setting [2]) was 70%; in the assay with synthesis of dopamine (setting [3]), 71%.

Regarding `Nc1cccc(OCCCNCC2COc3cc(O)ccc3O2)c1` (centres unmarked) [Example 5, N-[3-(3-Aminophenoxy)propyl]-2,3-dihydro-6-hydroxy-1,4-benzodioxin-2-methanamine], the values for the inhibition at 10 mg/kg in the assay with synthesis of dopamine (setting [2]) and with synthesis of dopamine (setting [3]) were 31% and 30%, respectively.

With `Nc1cccc(OCCCNCC2COc3c(O)cccc3O2)c1` (centres unmarked) [Example 6, N-[3-(3-Aminophenoxy)propyl]-2,3-dihydro-5-hydroxy-1,4-benzodioxin-2-methanamine], the inhibition at 10 mg/kg worked out at 23% in the assay on synthesis of dopamine (setting [2]) and 30% with synthesis of dopamine (setting [3]).

For the compound `Nc1cccc(OCCCNC[C@@H]2COc3ccc(O)cc3O2)c1` [Example 7, (R)-N-[3-(3-Aminophenoxy)propyl]-2,3-dihydro-7-hydroxy-1,4-benzodioxin-2-methanamine], the ED50 in the assay on mouse locomotor activity (Mus musculus) was 1.34 mg/kg. Moreover, the inhibition at 10 mg/kg in the assay on synthesis of dopamine (setting [2]) was found to be 27%; in the assay on synthesis of dopamine (setting [3]), 19%.

In the case of `COc1ccc2c(c1)OC(CNCCCOc1cccc(N)c1)CO2` (centres unmarked) [Example 8, N-[3-(3-Aminophenoxy)propyl]-2,3-dihydro-7-methoxy-1,4-benzodioxin-2-methanamine], at dopamine D2 receptor (% at 1.0 μM, read-out: Receptor Affinities D2 (% @ ( ) μM)), the inhibition at 1 µM was found to be 48%. Besides, the inhibition at 10 mg/kg in the assay on synthesis of dopamine (setting [2]) turned out to be 42.9%. Moreover, the inhibition at 0.1 µM in assay [1] stood at 95%.

`Nc1cccc(OCCCNC[C@H]2COc3ccccc3O2)c1` [Example 9, (S)-N-[3-(3-Aminophenoxy)propyl]-2,3-dihydro-1,4-benzodioxin-2-methanamine]: in the assay with mouse locomotor activity, the ED50 was 0.19 mg/kg. Moreover, the inhibition at 0.1 µM in assay [1] is 100%.

Regarding `Nc1cccc(OCCCNCC2COc3cc4c(cc3O2)OCO4)c1` (centres unmarked) [Example 10, N-[3-(3-Aminophenoxy)propyl]-2,3-dihydro-6,7-methylenedioxy-1,4-benzodioxin-2-methanamine], the ED50 in the assay with mouse locomotor activity was 1.8 mg/kg. Also, the inhibition at 10 mg/kg with synthesis of dopamine (setting [2]) was found to be 70.9%. The inhibition at 0.1 µM in assay [1] was 54%.

Regarding `COc1cccc2c1OC(CNCCCOc1cccc(N)c1)CO2` (centres unmarked) [Example 11, N-[3-(3-Aminophenoxy)propyl]-2,3-dihydro-8-methoxy-1,4-benzodioxin-2-methanamine], in the assay on synthesis of dopamine (setting [2]), the inhibition at 10 mg/kg came out at 13%.

With `Nc1cccc(OCCCNCC2COc3cccc(O)c3O2)c1` (centres unmarked) [Example 12, N-[3-(3-Aminophenoxy)propyl]-2,3-dihydro-8-hydroxy-1,4-benzodioxin-2-methanamine], the inhibition at 10 mg/kg with synthesis of dopamine (setting [2]) came to 17.4%.

Regarding `Nc1cccc(OCCCNCC2COc3ccc(Cl)cc3O2)c1` (centres unmarked) [Example 13, N-[3-(3-Aminophenoxy)propyl]-2,3-dihydro-7-chloro-1,4-benzodioxin-2-methanamine], the inhibition at 10 mg/kg in the assay on synthesis of dopamine (setting [2]) worked out at 9.1%.

As to `COc1cc2c(cc1OC)OC(CNCCCOc1cccc(N)c1)CO2` (centres unmarked) [Example 14, N-[3-(3-Aminophenoxy)propyl]-2,3-dihydro-6,7-dimethoxy-1,4-benzodioxin-2-methanamine], the inhibition at 10 mg/kg in the assay on synthesis of dopamine (setting [2]) came out at 53.7%.

In the case of `COc1ccc2c(c1OC)OCC(CNCCCOc1cccc(N)c1)O2` (centres unmarked) [Example 15, N-[3-(3-Aminophenoxy)propyl]-2,3-dihydro-5,6-dimethoxy-1,4-benzodioxin-2-methanamine], the inhibition at 10 mg/kg with synthesis of dopamine (setting [2]) amounted to 7.6%.

For `Nc1cccc(OCCCNCC2COc3ccc(F)cc3O2)c1` (centres unmarked) [Example 16, N-[3-(3-Aminophenoxy)propyl]-2,3-dihydro-7-fluoro-1,4-benzodioxin-2-methanamine], the ED50 in the assay on mouse locomotor activity turned out to be 1.4 mg/kg. For the same compound, the inhibition at 10 mg/kg in the assay with synthesis of dopamine (setting [2]) came to 59.9%. Moreover, in assay [1], the inhibition at 0.1 µM was 87%.

In the case of `COc1ccc2c(c1)O[C@@H](CNCCCOc1cccc(N)c1)CO2` [Example 17, (S)-N-[3-(3-Aminophenoxy)propyl]-2,3-dihydro-7-methoxy-1,4-benzodioxin-2-methanamine], the inhibition at 10 mg/kg in the assay on synthesis of dopamine (setting [2]) was found to be 28%.

As for `Cc1c(O)ccc2c1OC(CNCCCOc1cccc(N)c1)CO2` (centres unmarked) [Example 19, N-[3-(3-Aminophenoxy)propyl]-2,3-dihydro-7-hydroxy-8-methyl-1,4-benzodioxin-2-methanamine], the inhibition at 10 mg/kg in the assay on synthesis of dopamine (setting [2]) was 21%.

Consider `O=C1CC2(CCCC2)CC(=O)N1CCCCNCC1COc2ccccc2O1` (centres unmarked) [MDL 72832, 8-[4-(1,4-benzodioxan-2-ylmethylamino)butyl]-8-azaspiro[4.5]decane-7,9-dione], for which the “5-HT1A receptor ligand character” value in the assay with 5-HT1A receptor (in words, Fozard et al.) is “selective and stereospecific”.

`O=C1CC2(CCCC2)CC(=O)N1CCCCN1CCN(c2ncccn2)CC1` [buspirone]: the “affinity for the 5-HT1A serotonin receptor subtype” value in the assay with 5-HT1A receptor (in words, standard for anxiolytic activity) is “potent affinity”.

A word on the IC50: it is the point on the concentration scale where inhibition reaches its midpoint.
